In ChEMBL document CHEMBL1201862, “PubChem BioAssay data set” (2004):
The source made the active and inactive calls.

Legend:
[1] = biological target: T1, Histone-lysine N-methyltransferase NSD2 (Homo sapiens, UniProt O96028); format: biochemical
T1 sequence (O96028 whole entry): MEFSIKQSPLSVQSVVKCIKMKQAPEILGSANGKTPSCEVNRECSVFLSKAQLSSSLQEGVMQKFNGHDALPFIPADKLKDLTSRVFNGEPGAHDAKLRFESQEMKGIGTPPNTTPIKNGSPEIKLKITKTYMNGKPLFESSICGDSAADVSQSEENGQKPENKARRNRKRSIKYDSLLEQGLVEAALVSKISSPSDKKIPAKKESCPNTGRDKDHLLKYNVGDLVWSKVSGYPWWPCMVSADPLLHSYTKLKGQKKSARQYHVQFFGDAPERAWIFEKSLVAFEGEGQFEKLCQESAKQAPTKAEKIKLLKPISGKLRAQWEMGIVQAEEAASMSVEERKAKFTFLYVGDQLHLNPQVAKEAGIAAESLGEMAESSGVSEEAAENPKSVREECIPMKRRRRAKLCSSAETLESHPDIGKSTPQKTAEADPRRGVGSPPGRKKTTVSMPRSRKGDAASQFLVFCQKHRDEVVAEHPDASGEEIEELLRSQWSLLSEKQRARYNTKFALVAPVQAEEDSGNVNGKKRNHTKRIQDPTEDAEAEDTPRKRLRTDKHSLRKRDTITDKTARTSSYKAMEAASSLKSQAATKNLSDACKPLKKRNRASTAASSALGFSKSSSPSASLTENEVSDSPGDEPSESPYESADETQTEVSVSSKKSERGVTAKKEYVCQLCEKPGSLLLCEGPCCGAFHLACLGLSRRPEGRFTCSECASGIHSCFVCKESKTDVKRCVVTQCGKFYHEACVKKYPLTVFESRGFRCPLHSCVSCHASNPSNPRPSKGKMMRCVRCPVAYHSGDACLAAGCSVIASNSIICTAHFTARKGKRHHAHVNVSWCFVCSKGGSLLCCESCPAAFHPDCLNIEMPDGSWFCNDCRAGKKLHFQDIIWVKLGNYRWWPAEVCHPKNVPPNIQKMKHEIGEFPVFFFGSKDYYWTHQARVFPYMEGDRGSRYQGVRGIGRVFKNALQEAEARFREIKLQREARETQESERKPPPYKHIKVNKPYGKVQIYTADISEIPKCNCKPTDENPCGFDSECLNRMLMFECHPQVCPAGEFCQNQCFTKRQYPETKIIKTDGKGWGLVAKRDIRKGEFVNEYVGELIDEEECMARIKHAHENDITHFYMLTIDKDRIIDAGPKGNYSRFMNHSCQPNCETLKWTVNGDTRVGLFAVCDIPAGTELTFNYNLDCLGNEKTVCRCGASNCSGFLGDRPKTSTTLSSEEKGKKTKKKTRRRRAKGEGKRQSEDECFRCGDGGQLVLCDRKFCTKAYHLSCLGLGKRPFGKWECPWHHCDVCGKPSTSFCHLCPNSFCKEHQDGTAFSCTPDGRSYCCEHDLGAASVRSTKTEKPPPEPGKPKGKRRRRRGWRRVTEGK

[2] = biological target: Mitochondrial peptide methionine sulfoxide reductase (Bos taurus, UniProt P54149); experiment: Absorbance-based biochemical high throughput dose response assay for activators of Methionine sulfoxide reductase A (MsrA).; format: functional
Mitochondrial peptide methionine sulfoxide reductase, sequence (P54149 whole entry): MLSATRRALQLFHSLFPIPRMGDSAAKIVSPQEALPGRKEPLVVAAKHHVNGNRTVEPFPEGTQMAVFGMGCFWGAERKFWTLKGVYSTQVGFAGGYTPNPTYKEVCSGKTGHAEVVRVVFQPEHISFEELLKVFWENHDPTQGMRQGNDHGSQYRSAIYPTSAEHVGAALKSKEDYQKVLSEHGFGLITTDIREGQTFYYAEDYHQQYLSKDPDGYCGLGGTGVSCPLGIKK

Paired box protein Pax-8 = Paired box protein Pax-8 (Homo sapiens, UniProt Q06710); experiment: inhibitors of PAX8-driven TPO luciferase reporter, dose response, RMG-I cells, cherry-pick (AID 687027); format: functional, cell-based;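 further: luciferase reporter driven by Pax8 target thyroperoxidase promoter measured by SteadyGlo luminescence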
Paired box protein Pax-8, sequence (Q06710 whole entry): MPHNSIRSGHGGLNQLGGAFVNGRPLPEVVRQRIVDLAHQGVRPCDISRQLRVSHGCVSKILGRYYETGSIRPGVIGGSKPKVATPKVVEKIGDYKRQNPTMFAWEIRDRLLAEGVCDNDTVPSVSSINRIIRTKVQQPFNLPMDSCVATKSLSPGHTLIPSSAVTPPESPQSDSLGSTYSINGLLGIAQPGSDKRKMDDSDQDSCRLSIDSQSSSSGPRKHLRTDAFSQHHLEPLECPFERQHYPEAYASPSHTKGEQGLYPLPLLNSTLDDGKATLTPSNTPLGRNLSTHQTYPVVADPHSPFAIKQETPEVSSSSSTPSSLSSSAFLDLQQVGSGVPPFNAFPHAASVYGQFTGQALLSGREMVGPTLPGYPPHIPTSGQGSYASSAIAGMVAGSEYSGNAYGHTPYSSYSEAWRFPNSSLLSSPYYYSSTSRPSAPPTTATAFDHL

[3] = biological target: Tyrosyl-DNA phosphodiesterase 2 (Homo sapiens, UniProt O95551); experiment: human TDP2 enzyme inhibitors, dose response, biochemical, epi absorbance, IC50 (AID 743297)
Tyrosyl-DNA phosphodiesterase 2, sequence (O95551 whole entry): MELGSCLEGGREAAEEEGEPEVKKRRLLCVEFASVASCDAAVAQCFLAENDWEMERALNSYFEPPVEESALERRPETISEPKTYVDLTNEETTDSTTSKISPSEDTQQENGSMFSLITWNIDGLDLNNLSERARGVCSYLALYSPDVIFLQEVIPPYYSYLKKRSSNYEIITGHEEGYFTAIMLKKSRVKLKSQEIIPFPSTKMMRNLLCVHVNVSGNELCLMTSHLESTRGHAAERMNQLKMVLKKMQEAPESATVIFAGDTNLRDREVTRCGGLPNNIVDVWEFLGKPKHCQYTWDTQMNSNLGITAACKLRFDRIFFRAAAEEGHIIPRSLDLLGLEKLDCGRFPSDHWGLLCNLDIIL

[4] = biological target: Platelet-activating factor acetylhydrolase (Mus musculus, UniProt Q60963); experiment: Late stage assay provider results from the probe development effort to identify inhibitors of pPAFAH: fluorescence-based dose-response biochemical gel-based competitive Activity-Based Protein Profiling (ABPP) assay for SAR compounds.; format: functional
Platelet-activating factor acetylhydrolase, sequence (Q60963 whole entry, the tested form may be a part): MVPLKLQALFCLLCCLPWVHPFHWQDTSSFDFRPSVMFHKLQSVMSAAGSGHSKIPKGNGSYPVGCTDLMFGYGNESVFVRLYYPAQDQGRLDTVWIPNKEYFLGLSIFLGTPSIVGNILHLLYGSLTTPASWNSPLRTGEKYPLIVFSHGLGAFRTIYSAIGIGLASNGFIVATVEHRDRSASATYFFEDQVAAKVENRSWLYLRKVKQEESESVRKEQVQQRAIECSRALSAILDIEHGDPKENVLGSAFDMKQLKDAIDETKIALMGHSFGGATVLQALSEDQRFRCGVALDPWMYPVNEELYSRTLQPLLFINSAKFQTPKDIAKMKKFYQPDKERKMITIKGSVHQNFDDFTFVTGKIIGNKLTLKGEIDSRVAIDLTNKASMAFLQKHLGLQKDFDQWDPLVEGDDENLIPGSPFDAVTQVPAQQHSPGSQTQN

[5] = biological target: T2, Tyrosine-protein phosphatase non-receptor type 22 (Homo sapiens, UniProt Q9Y2R2); experiment: LYP phosphatase inhibition for selectivity, dose response, selectivity assay for LMPTP inhibitor project, biochemical, fluorescence, LYP catalytic domain (AID 652006); format: functional; settings: read-out: IC50_Mean
T2 sequence (Q9Y2R2 whole entry): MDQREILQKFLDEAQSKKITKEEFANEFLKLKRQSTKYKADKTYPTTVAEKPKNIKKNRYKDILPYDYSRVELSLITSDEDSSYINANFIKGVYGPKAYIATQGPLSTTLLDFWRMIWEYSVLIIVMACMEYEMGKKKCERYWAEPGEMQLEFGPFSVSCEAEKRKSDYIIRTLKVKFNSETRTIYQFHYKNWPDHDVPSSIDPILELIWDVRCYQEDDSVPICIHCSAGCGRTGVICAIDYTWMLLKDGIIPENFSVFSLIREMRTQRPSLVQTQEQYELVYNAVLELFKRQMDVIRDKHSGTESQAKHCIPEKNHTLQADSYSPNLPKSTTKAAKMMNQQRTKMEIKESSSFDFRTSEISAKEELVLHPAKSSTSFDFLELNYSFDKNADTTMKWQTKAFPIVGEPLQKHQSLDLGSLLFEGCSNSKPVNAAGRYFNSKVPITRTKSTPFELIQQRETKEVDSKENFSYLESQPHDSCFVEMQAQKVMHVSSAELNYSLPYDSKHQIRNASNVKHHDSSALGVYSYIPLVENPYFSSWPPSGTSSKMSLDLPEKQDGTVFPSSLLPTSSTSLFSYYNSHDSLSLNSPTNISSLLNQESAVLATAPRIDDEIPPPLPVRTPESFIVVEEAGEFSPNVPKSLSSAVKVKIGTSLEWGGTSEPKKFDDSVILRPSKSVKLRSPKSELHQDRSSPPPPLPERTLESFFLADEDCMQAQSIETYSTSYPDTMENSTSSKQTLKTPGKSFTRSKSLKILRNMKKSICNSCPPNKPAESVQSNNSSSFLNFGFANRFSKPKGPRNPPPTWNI

[6] = biological target: T3, Low molecular weight phosphotyrosine protein phosphatase (Homo sapiens, UniProt P24666); format: functional; settings: read-out: IC50_Mean
T3 sequence (P24666 whole entry): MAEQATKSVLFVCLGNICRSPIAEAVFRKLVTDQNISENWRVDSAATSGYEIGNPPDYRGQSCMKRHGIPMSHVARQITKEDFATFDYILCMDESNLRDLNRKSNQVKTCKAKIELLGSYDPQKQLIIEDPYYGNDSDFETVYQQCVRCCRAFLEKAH

[7] = biological target: T3, Low molecular weight phosphotyrosine protein phosphatase; format: functional; settings: read-out: IC50_Mean; remark: listed apart in the source
[8] = biological target: Potassium voltage-gated channel subfamily KQT member 2 (Rattus norvegicus, UniProt O88943); experiment: KCNQ2 potassium channel inhibitors, dose response, cell-based, automated electrophysiology, set II, rat KCNQ2 (AID 588637); format: functional
Potassium voltage-gated channel subfamily KQT member 2, sequence (O88943 whole entry): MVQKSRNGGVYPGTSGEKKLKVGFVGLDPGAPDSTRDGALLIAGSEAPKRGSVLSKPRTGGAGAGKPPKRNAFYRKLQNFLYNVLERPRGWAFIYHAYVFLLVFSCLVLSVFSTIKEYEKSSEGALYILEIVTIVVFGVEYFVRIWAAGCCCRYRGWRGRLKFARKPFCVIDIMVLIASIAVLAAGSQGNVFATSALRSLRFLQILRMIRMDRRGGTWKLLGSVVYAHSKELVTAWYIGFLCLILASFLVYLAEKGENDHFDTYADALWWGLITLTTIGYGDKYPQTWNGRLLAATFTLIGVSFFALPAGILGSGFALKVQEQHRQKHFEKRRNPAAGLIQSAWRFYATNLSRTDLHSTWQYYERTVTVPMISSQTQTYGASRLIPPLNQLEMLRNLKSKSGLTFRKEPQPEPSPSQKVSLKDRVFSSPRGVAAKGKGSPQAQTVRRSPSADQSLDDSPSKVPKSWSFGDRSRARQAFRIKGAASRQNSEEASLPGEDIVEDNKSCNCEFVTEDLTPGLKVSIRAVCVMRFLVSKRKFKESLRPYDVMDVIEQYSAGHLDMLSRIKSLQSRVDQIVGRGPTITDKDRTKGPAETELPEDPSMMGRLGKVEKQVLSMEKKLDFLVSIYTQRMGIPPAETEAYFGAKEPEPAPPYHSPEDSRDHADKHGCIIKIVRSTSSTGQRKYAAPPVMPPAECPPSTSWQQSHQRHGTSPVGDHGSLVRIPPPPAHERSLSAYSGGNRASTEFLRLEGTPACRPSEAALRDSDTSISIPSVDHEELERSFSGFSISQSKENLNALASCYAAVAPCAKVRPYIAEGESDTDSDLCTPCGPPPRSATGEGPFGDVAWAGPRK

[9] = biological target: T4, ATP-dependent translocase ABCB1 (Homo sapiens, UniProt P08183); experiment: ABCG2 efflux pump inhibitor potency, dose response, Ig-MXP3 cells, JC-1, flow cytometry, set 2 (AID 504566); format: functional; settings: read-out: EC50_MICROM_;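 further: flow cytometry median green fluorescence of retained JC-1 dye; potency of efflux pump inhibition measured as rising substrate retention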
T4 sequence (P08183 whole entry): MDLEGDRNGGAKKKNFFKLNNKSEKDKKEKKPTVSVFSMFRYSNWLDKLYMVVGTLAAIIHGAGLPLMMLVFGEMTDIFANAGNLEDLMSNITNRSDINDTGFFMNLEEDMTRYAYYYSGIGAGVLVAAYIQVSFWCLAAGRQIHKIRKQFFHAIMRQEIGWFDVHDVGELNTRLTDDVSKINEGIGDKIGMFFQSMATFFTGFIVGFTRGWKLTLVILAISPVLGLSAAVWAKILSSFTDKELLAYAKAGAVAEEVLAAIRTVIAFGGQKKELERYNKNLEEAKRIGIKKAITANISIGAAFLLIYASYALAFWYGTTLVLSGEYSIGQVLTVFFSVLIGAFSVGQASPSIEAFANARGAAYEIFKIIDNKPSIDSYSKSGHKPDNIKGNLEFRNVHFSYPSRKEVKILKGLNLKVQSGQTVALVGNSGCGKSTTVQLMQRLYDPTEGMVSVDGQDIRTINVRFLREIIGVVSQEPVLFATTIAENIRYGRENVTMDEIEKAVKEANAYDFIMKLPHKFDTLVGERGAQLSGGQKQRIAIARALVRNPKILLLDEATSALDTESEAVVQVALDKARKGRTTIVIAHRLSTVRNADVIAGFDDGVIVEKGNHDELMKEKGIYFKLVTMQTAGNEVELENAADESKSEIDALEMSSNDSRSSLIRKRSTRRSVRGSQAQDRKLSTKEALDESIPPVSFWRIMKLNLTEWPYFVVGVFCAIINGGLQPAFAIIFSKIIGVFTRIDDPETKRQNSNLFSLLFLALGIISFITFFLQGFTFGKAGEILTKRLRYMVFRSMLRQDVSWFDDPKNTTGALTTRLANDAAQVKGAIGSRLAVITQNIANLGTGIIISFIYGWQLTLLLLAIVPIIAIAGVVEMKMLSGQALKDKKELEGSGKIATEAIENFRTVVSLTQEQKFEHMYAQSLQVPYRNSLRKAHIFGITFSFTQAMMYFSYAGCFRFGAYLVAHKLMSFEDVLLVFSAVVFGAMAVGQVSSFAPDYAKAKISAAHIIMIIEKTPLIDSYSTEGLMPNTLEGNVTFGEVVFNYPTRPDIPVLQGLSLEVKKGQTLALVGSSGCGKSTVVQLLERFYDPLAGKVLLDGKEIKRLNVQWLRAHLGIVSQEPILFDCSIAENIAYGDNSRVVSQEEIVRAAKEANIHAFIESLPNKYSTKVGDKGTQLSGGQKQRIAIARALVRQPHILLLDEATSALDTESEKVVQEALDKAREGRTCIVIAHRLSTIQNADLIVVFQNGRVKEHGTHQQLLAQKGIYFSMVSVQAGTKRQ

[10] = biological target: T4, ATP-dependent translocase ABCB1; experiment: ABCB1 efflux inhibitor potency, dose response, Jurkat-DNR cells, JC-1, flow cytometry, set 2 (AID 504569); format: functional; settings: read-out: EC50_MICROM_;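 further: potency of pump inhibitors that raise cellular JC-1 green fluorescence up to the nicardipine level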
[11] = Luminescence Cell-Based Dose Response HTS to Identify Inhibitors of 5'UTR Stem-Loop Driven Prion Protein mRNA Translation in H4 Neuroglioblastoma Cells. [Related pubchem assays: 1827 (Project Summary), 1813 (Primary HTS)]; format: functional
[12] = AlphaScreen signal interference compounds, dose response, artefact control for ARNT-TACC3 interaction inhibitor project, biochemical, luminescence, cherry-pick (AID 651705); format: functional;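 further: AlphaScreen bead proximity signal that flags compounds interfering with the detection technology; potency reflects signal decrease which marks the compound as an assay artifact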
[13] = biological target: Induced myeloid leukemia cell differentiation protein Mcl-1 (Homo sapiens, UniProt Q07820); format: functional
Induced myeloid leukemia cell differentiation protein Mcl-1, sequence (Q07820 whole entry): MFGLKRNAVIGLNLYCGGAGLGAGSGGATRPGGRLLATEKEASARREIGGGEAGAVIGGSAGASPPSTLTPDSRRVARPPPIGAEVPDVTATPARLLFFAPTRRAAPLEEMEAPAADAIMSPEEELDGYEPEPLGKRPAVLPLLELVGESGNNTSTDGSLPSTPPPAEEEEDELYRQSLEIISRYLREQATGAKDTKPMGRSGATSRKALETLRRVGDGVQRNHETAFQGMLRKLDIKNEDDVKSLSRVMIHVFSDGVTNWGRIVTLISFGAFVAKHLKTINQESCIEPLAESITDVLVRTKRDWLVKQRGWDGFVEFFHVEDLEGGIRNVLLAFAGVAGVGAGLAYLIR

[14] = inhibitors of SNCA 5'UTR-driven reporter translation, confirmation, H4 neuroglioma cells, luminescence (AID 1988); format: functional, cell-based
[15] = inhibitors of firefly luciferase expression or activity, dose response, H4 neuroglioma cells, luminescence (AID 1990); format: functional, cell-based
[16] = ARNT/TACC3 interaction disruptors, potency, confirmation, biochemical, AlphaScreen, cherry-picked samples (AID 651703); format: functional, Homo sapiens;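 further: His-tagged ARNT PAS-B domain paired with GST-TACC3 E629A dimer coactivator fragment; potency of inhibitors that break up the complex and lower AlphaScreen signal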

## NC1=CC(=O)C(=O)c2cccnc21
[1]
  AC50: 0.546 µM (active)
[2]
  EC50: > 34.6 µM (inactive)
Paired box protein Pax-8
  AC50: 10.5 µM (active)
[3]
  IC50: 5.99 µM (active)

## Cc1cc(N2CCN(C(=O)Oc3ccc(C(F)(F)F)cc3)CC2)c2ccccc2n1
[4]
  IC50: 0.041 µM (active)

## CC(=O)Nc1ccc(CNc2nc(NCc3cccs3)nc3ccsc23)cc1
[5]
  IC50: 49.5 µM (inactive)
[6]
  IC50: 13.6 µM (active)
[7]
  IC50: 15.5 µM (active)

## O=C(COc1ccc(F)cc1)N(c1ccccn1)C1CCCCC1
[8]
  IC50: 1.49 µM (active)

## O=C(c1ccoc1)N1CCN(c2cc(-c3cccnc3)nc3cc(-c4cccc(Cl)c4)nn23)CC1
[9]
  EC50: 0.26 µM (active)
[10]
  EC50: 0.97 µM (active)

## COc1cc2c(cc1O)C[C@H]1NCCc3cc4c(c-2c31)OCO4
[11]
  EC50: 85.6 µM (active)
[12]
  AC50: 84.2 µM (active)
[13]
  IC50: 5.61 µM (active)
[14]
  EC50: > 120 µM (not active)
[15]
  EC50: 13.2 µM (active)

## CN1CCN(/N=C/c2nc(-c3ccccc3Cl)n3ccccc23)CC1
[16]
  AC50: 75.6 µM (active)
